Some results are limits rather than exact numbers.

This assay relates to MDA-MB-231 cells. The assay can be described thus: Cell proliferation assay (CellTiter-Glo), MDA-MB-231. The assay is classed as cell-based. To be noted: Homo sapiens, MDA-MB-231, 72 h, 72 h treatment, Celltiter-Glo luminescence. The protocol:
Example 238: Cell Proliferation Assay
MDA-MB-231 and EVSA-T cells (10000 cells/well) were plated onto 96-well plates (Corning, Cat #3917) in 95 μL of medium (RPMI-1640 containing 10% FBS and MEM containing 10% FBS, respectively). Compounds with various concentrations ([…]) were added to the wells. After treatment for 72 h, 30 μL of Celltiter-Glo reagent (Promega, Cat #G7573) was added and incubated at room temperature for 15 min, then the luminescent signal was determined using a microplate reader (Biotek, SynergyH1). The inhibitor dose-response curves were analyzed using normalized IC50 regression curve fitting with control based normalization.
In general terms: In ATP-based viability assays light output follows the ATP content of the culture.
What is called IC50 is the concentration that gives 50% inhibition. In the case of `C[C@@H]1CN(CC(=O)N2CC(C)(C)c3c2cc(Cc2ccc(F)cc2)c2nc(C(F)(F)F)cn32)C(Cn2ccnc2C(F)(F)F)CN1` (stereo in doubt) [Compound 177, 1-(4-(4-fluorobenzyl)-8,8-dimethyl-2-(trifluoromethyl)-7,8-dihydro-6H-imidazo[1,2-a]pyrrolo[2,3-e]pyridin-6-yl)-2-((2S,5R)-5-methyl-2-((2-(trifluoromethyl)-1H-imidazol-1-yl)methyl)piperazin-1-yl)ethan-1-one], the half-maximal inhibitory concentration (IC50) was 320 nM.

Turning to `C[C@@H]1CN(CC(=O)N2CC(C)(C)c3c2cc(Cc2ccc(F)cc2)c2ncnn32)C(CN2CCN(CC#N)C3CC32)CN1` (stereo in doubt) [Compound 213, 2-(5-(((2S,5R)-1-(2-(4-(4-fluorobenzyl)-8,8-dimethyl-7,8-di hydro-6H-pyrrolo[2,3-e][1,2,4]triazolo[1,5-a]pyridin-6-yl)-2-oxoethyl)-5-methylpiperazin-2-yl)methyl)-2,5-diazabicyclo[4.1.0]heptan-2-yl)acetonitrile], the IC50 came to 560 nM.

On to `C[C@@H]1CN(CC(=O)N2CC(C)(C)c3c2cc(Cc2ccc(F)cc2)c2cnc(C4CC4)n32)[C@@H](CN2CCOC[C@H]2C)CN1` [Compound 3, 1-(1-cyclopropyl-4-(4-fluorobenzyl)-8,8-dimethyl-7,8-dihydro-6H-imidazo[1,5-a]pyrrolo[2,3-e]pyridin-6-yl)-2-((2R,5R)-5-methyl-2-(((R)-3-methylmorpholino)methyl)piperazin-1-yl)ethan-1-one], for which the IC50 came to 59 nM.

Take `C[C@@H]1CN(CC(=O)N2CC(C)(C)c3c2cc(C(O)c2ccc(F)cc2F)c2ncnn32)[C@@H](CN2CCOC[C@H]2C)CN1` (stereo partly drawn) [Compound 50, 1-(4-((2,4-difluorophenyl)(hydroxy)methyl)-8,8-dimethyl-7,8-dihydro-6H-pyrrolo[2,3-e][1,2,4]triazolo[1,5-a]pyridin-6-yl)-2-((2R,5R)-5-methyl-2-(((R)-3-methylmorpholino)methyl)piperazin-1-yl)ethan-1-one]: the IC50 is more than 10000 nM.

Take `C[C@@H]1CN(CC(=O)N2CC(C)(C)c3c2cc(Cc2ccc(F)cc2)c2ncnn32)[C@@H](CN2CCC(F)(F)C[C@H]2C)CN1` [Compound 75, 2-((2R,5R)-2-(((R)-4,4-difluoro-2-methylpiperidin-1-yl)methyl)-5-methylpiperazin-1-yl)-1-(4-(4-fluorobenzyl)-8,8-dimethyl-7,8-dihydro-6H-pyrrolo[2,3-e][1,2,4]triazolo[1,5-a]pyridin-6-yl)ethan-1-one]: the IC50 came out at 87 nM.

With `C[C@@H]1CN(CC(=O)N2CC(C)(C)c3c2cc(Cc2ccc(F)cc2)c2ncnn32)[C@@H](CN2CC3CC2CO3)CN1` (stereo partly drawn) [Compound 78, 2-((2R,5R)-2-((2-oxa-5-azabicyclo[2.2.1]heptan-5-yl)methyl)-5-methylpiperazin-1-yl)-1-(4-(4-fluorobenzyl)-8,8-dimethyl-7,8-dihydro-6H-pyrrolo[2,3-e][1,2,4]triazolo[1,5-a]pyridin-6-yl)ethan-1-one], the half-maximal inhibitory concentration (IC50) came out at 120 nM.

As for `Cc1nccn1C[C@H]1CN[C@H](C)CN1CC(=O)N1CC(C)(C)c2c1cc(Cc1ccc(F)cc1)c1ncnn21` [Compound 91, 1-(4-(4-fluorobenzyl)-8,8-dimethyl-7,8-dihydro-6H-pyrrolo[2,3-e][1,2,4]triazolo[1,5-a]pyridin-6-yl)-2-((2R,5R)-5-methyl-2-((2-methyl-1H-imidazol-1-yl)methyl)piperazin-1-yl)ethan-1-one], the half-maximal inhibitory concentration (IC50) came out at 80 nM.

Turning to `C[C@@H]1CN(CC(=O)N2CC(C)(C)c3c2cc(Cc2ccc(F)cc2)c2c(Cl)cnn32)[C@@H](CN2CCOC[C@H]2C)CN1` [Compound 106, 1-(3-chloro-4-(4-fluorobenzyl)-8,8-dimethyl-7,8-dihydro-6H-pyrazolo[1,5-a]pyrrolo[2,3-e]pyridin-6-yl)-2-((2R,5R)-5-methyl-2-(((R)-3-methylmorpholino)methyl)piperazin-1-yl)ethan-1-one], the concentration for half-maximal inhibition (IC50) is 390 nM.

On to `C[C@@H]1CN(CC(=O)N2CC(C)(C)c3c2cc(Cc2ccc(F)cc2)c2nc(C(=O)O)cn32)[C@@H](CN2CCOC[C@H]2C)CN1` [Compound 117, 4-(4-fluorobenzyl)-8,8-dimethyl-6-(2-((2R,5R)-5-methyl-2-(((R)-3-methylmorpholino)methyl)piperazin-1-yl)acetyl)-7,8-dihydro-6H-imidazo[1,2-a]pyrrolo[2,3-e]pyridine-2-carboxylic acid], for which the IC50 is more than 10000 nM.

`CCOC(=O)c1cnn2c3c(cc(Cc4ccc(F)cc4)c12)N(C(=O)CN1C[C@@H](C)NC[C@@H]1CN1CCOC[C@H]1C)CC3(C)C` [Compound 120, ethyl 4-(4-fluorobenzyl)-8,8-dimethyl-6-(2-((2R,5R)-5-methyl-2-(((R)-3-methylmorpholino)methyl)piperazin-1-yl)acetyl)-7,8-dihydro-6H-pyrazolo[1,5-a]pyrrolo[2,3-e]pyridine-3-carboxylate]: the IC50 was 400 nM.

`Cc1nc(C)n2c3c(cc(Cc4ccc(F)cc4)c12)N(C(=O)CN1C[C@@H](C)NC[C@@H]1CN1CCOC[C@H]1C)CC3(C)C` [Compound 124, 1-(4-(4-fluorobenzyl)-1,3,8,8-tetramethyl-7,8-dihydro-6H-imidazo[1,5-a]pyrrolo[2,3-e]pyridin-6-yl)-2-((2R,5R)-5-methyl-2-(((R)-3-methylmorpholino)methyl)piperazin-1-yl)ethan-1-one]: the half-maximal inhibitory concentration (IC50) turned out to be 290 nM.

On to `Cc1nc(CO)c2c(Cc3ccc(F)cc3)cc3c(n12)C(C)(C)CN3C(=O)CN1C[C@@H](C)NC[C@@H]1CN1CCOC[C@H]1C` [Compound 125, 1-(4-(4-fluorobenzyl)-3-(hydroxymethyl)-1,8,8-trimethyl-7,8-dihydro-6H-imidazo[1,5-a]pyrrolo[2,3-e]pyridin-6-yl)-2-((2R,5R)-5-methyl-2-(((R)-3-methylmorpholino)methyl)piperazin-1-yl)ethan-1-one], for which the 50% inhibitory concentration (IC50) came out at 200 nM.

As for `C[C@@H]1CN(CC(=O)N2CC(C)(C)c3c2cc(Cc2ccc(F)cc2)c2nc(=O)[nH]n32)[C@@H](CN2CCOC[C@H]2C)CN1` [Compound 131, 4-(4-fluorobenzyl)-8,8-dimethyl-6-(2-((2R,5R)-5-methyl-2-(((R)-3-methylmorpholino)methyl)piperazin-1-yl)acetyl)-7,8-dihydro-1H-pyrrolo[2,3-e][1,2,4]triazolo[1,5-a]pyridin-2(6H)-one], the half-maximal inhibitory concentration (IC50) was found to be 2740 nM.

Take `C[C@@H]1CN(CC(=O)N2CC(C)(C)c3c2cc(Cc2ccc(F)cc2)c2nnc(N)n32)[C@@H](CN2CCOC[C@H]2C)CN1` [Compound 136, 1-(1-amino-4-(4-fluorobenzyl)-8,8-dimethyl-7,8-dihydro-6H-pyrrolo[2,3-e][1,2,4]triazolo[4,3-a]pyridin-6-yl)-2-((2R,5R)-5-methyl-2-(((R)-3-methylmorpholino)methyl)piperazin-1-yl)ethan-1-one]: the IC50 was 1390 nM.

Consider `C[C@@H]1CN(CC(=O)N2CC(C)(C)c3c2cc(C(=O)c2ccc(F)cc2)c2ncnn32)[C@@H](CN2CCOC[C@H]2C)CN1` [Compound 139, 1-(4-(4-fluorobenzoyl)-8,8-dimethyl-7,8-dihydro-6H-pyrrolo[2,3-e][1,2,4]triazolo[1,5-a]pyridin-6-yl)-2-((2R,5R)-5-methyl-2-(((R)-3-methylmorpholino)methyl)piperazin-1-yl)ethan-1-one], for which the IC50 is 710 nM.

Values taken from patent publication US20250179073A1, “TRICYCLIC HETEROCYCLE COMPOUNDS AS IAP ANTAGONISTS” (Ascentage Pharma (Suzhou) Co., Ltd., priority 2022, published 2025).
